Data from US6632979B2, “Rodent HER2 tumor model” (Genentech, Inc., priority 2000, dated 2003).
“Also recorded” adds a separate entry of the source.

Assays:
[1] = system: tumors from the HER2 transgenic cell line HER-3081-3-10; assay: Growth of tumors from cell line HER-3081-3-10 in mice; format: in vivo, mouse; settings: 4D5, 7C2 30 mg/kg intraperitoneally for 4 weeks; taxol 15.6 mg/kg subcutaneously daily for 5 days; tumors 100 mm^3, FIG. 16
Procedure: The efficacy of taxol and anti-HER2 monclonal antibodies 7C2 and 4D5 in preventing tumor growth was assessed (FIG. 16). At day 0, 6-8 week old FVP mice were innoculated under the skin with 2 million tumor cells from cell line HER-3081-3-10. When the tumors reached 100 mm^3 the mice were separated into 5 groups with 9 animals per group. Antibodies 4D5 and 7C2 were given intraperitoneally at 30 mg/kg for 4 weeks. Taxol was given subcutaneously daily for 5 days at 15.6 mg/kg. Tumors were measured during the study at regular intervals.

[2] = system: HER-5, HER-3081-3-4, HER-3081-3-10 and HER-3081-3-19 cells; assay: Mitogen responsiveness of HER2 transgenic cell lines, crystal violet; format: cell-based, mouse; settings: heregulin 0.005-5 nM or EGF 0.05-50 ng/ml, 4 days, FIG. 11
Procedure: Briefly, cells were detached from a T75 flask with Dissociation Solution (Sigma) and plated in fibronectin coated 96 well plates. Approximately 10,000 cells were plated per well in 0.1 ml of fully supplemented media. […] After 4 days plates were washed twice with PBS (pH 7.5), stained with crystal violet (0.5% in methanol), dried, solubilized and the optical density measured at a wavelength of 540 nm on a plate reader, essentially as described in Sugarman et al. Science 230:943-945 (1985).

[3] = system: MMTV-HER2-transgenic tumors transplanted into the mammary fat pad of FVB mice; assay: Transplanted MMTV-HER2-transgenic tumor model in FVB mice; format: in vivo, mouse
Text: Two mm3 pieces of MMTV-HER2-transgenic tumors were transplanted into the mammary fat pad of FVB mice.
All animals received five doses.
The tumor was surgically resected under aseptic conditions and minced into small pieces, 2 mm^3, which were then transplanted into the mammary fat pad of wild-type FVB female mice.

CC(=O)O[C@H]1C(=O)[C@@]2(C)[C@H]([C@H](OC(=O)c3ccccc3)[C@]3(O)C[C@H](OC(=O)[C@H](O)[C@@H](NC(=O)c4ccccc4)c4ccccc4)C(C)=C1C3(C)C)[C@]1(OC(C)=O)CO[C@@H]1C[C@@H]2O [taxol, paclitaxel]
reduction of tumor growth [1]: more effective than either of the antibodies alone

heregulin
proliferation in response to mitogen [2]: only the HER-5 cell line proliferated; also recorded: mitogens only for cell line HER-5

RITUXAN®: an unrelated antibody, used as negative control
efficacy on tumor size ([3]; FIG. 7, unconjugated control antibody): no efficacy | effect on tumor growth ([3]; FIG. 8, control antibody and control conjugate): Neither unconjugated RITUXAN® (control MAb E25) nor RITUXAN®-DM1 had any obvious effect on tumor growth
